# Measurements: BindingDB's records for PubMed 32222663 (n/a, 2020)
# Target: T1, Heparanase (Homo sapiens, UniProt Q9Y251)
# T1 sequence (Q9Y251 whole entry): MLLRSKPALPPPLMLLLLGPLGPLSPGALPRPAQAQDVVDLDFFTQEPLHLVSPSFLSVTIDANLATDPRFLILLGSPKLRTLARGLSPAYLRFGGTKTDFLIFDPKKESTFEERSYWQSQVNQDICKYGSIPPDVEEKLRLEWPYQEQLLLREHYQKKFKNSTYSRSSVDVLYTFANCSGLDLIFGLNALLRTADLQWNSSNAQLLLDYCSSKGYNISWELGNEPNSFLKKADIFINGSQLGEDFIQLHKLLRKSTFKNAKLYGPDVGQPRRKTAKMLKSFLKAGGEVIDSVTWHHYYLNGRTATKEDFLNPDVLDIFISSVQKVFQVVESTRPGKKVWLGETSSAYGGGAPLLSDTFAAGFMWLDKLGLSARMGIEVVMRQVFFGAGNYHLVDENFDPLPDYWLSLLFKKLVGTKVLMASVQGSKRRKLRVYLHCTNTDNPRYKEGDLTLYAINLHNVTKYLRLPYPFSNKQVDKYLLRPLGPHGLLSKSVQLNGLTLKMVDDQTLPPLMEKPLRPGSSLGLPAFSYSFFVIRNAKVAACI
# Experiment: Inhibition of recombinant human heparanase incubated for 4 hrs by beta-scintillation counter analysis
smiles,measurement,value
O=S(=O)(O)OC[C@H]1O[C@H](O[C@H]2[C@H](OS(=O)(=O)O)[C@H](OS(=O)(=O)O)C(C3O[C@H](COS(=O)(=O)O)[C@@H](O[C@H]4O[C@H](COS(=O)(=O)O)[C@@H](O[C@H]5O[C@H](COS(=O)(=O)O)[C@@H](OS(=O)(=O)O)[C@H](OS(=O)(=O)O)[C@@H]5OS(=O)(=O)O)[C@H](OS(=O)(=O)O)[C@@H]4OS(=O)(=O)O)[C@H](OS(=O)(=O)O)[C@@H]3OS(=O)(=O)O)O[C@@H]2COS(=O)(=O)O)[C@@H](OS(=O)(=O)O)[C@@H](OS(=O)(=O)O)[C@@H]1O[C@H]1O[C@H](COS(=O)(=O)O)[C@@H](OS(=O)(=O)O)[C@H](OS(=O)(=O)O)[C@@H]1OS(=O)(=O)O (stereo partly specified),IC50,5 nM
